Reference: patent US8076352B2, “Administration of carboline derivatives useful in the treatment of cancer and other diseases” (PTC Therapeutics, Inc., priority 2004, dated 2011)

These compounds were tested on hypoxia-inducible endogenous VEGF expression in HeLa cells (assay: Hypoxia-inducible endogenous VEGF expression, VEGF ELISA of conditioned media (dose-response EC50)). Settings: HeLa cells under hypoxic conditions.
Assay type: cell-based
Outline: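 HeLa cells were cultured 24-48 h under hypoxia (1% O2, 5% CO2, balance N2) with or without compound. Conditioned-media VEGF protein was measured by ELISA against a standard curve. EC50 and CC50 come from percentage-inhibition curves over, e.g., seven concentrations, with maximal inhibition set at 100%.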

Row | EC50 [µM] | Structure (SMILES)
1 | 0.2 to 1 | O=[N+](O)c1ccc(C2NCCc3c2[nH]c2ccc(Cl)cc32)cc1 (centres unmarked) [Compound 185]

Same assay, conditions: HeLa cells, hypoxic conditions (1% O2)

Row | EC50 [µM] | Structure (SMILES)
2 | < 0.008 | O=C(Oc1ccc(F)cc1)N1CCc2c([nH]c3ccc(Br)cc23)C1c1ccc(C(F)(F)F)cc1 (centres unmarked) [Compound 426]

Same assay, conditions: Homo sapiens, HeLa cells under hypoxic conditions

Row | EC50 [µM] | Structure (SMILES)
3 | < 0.008 | Cc1ccc(C2c3[nH]c4ccc(Cl)cc4c3CCN2C(=O)Oc2ccc(Cl)cc2)cc1 (centres unmarked) [Compound 347]
4 | > 1 | CCOC(=O)N1CCc2c([nH]c3ccc(F)cc23)C1c1ccc(Cl)cc1 (centres unmarked) [Compound 229]
5 | > 1 | Cc1cccc(C2NCCc3c2[nH]c2ccc(Cl)cc32)c1 (centres unmarked) [Compound 286]
6 | > 1 | CCOC(=O)N1CCc2c([nH]c3ccc(F)cc23)C1c1cccc(Cl)c1 (centres unmarked) [Compound 284]
7 | < 0.008 | O=C(OCCCl)N1CCc2c([nH]c3ccc(Cl)cc23)C1c1ccc(F)c(F)c1 (centres unmarked) [Compound 35]
8 | > 1 | COCCOCC(=O)N1CCc2c([nH]c3ccc(Br)cc23)C1c1ccc(Cl)cc1 (centres unmarked) [Compound 238]
9 | 0.008 to 0.04 | COC(=O)N1CCc2c([nH]c3ccc(Cl)cc23)C1c1cc(F)cc(F)c1 (centres unmarked) [Compound 92]
10 | > 1 | Fc1ccc2[nH]c3c(c2c1)CCNC3c1ccc(Cl)cc1 (centres unmarked) [Compound 254]
11 | 0.008 to 0.04 | CCCOC(=O)N1CCc2c([nH]c3ccc(Cl)cc23)C1c1ccccc1F (centres unmarked) [Compound 97]
12 | 0.008 to 0.04 | COc1ccc(C2c3[nH]c4ccc(Cl)cc4c3CCN2C(=O)Oc2ccccc2)cc1 (centres unmarked) [Compound 60]
13 | 0.008 to 0.04 | COc1ccc(C2c3[nH]c4ccc(Br)cc4c3CCN2O)cc1 (centres unmarked) [Compound 110]
14 | > 1 | COc1ccc2[nH]c3c(c2c1)CCNC3c1ccccc1 (centres unmarked) [Compound 322]
15 | < 0.008 | COc1ccc(C2c3[nH]c4ccc(Cl)cc4c3CCN2C(=O)C(C)OC(C)=O)cc1 (centres unmarked) [Compound 370]
16 | 0.008 to 0.04 | CC(=O)N1CCc2c([nH]c3ccc(Br)cc23)C1c1ccc(C(C)C)cc1 (centres unmarked) [Compound 102]
17 | < 0.008 | O=C(OCCCl)N1CCc2c([nH]c3ccc(Cl)cc23)C1c1cc(F)ccc1F (centres unmarked) [Compound 22]
18 | 0.2 to 1 | Clc1ccc2[nH]c3c(c2c1)CCNC3c1ccc(OCc2ccccc2)cc1 (centres unmarked) [Compound 212]
19 | 0.04 to 0.2 | Clc1ccc2[nH]c3c(c2c1)CCNC3c1ccc(Cl)c(Cl)c1 (centres unmarked) [Compound 170]
20 | 0.008 to 0.04 | CC(C)OC(=O)N1CCc2c([nH]c3ccc(Cl)cc23)C1c1ccc([N+](=O)[O-])cc1 (centres unmarked) [Compound 56]
21 | < 0.008 | CCOC(=O)N1CCc2c([nH]c3ccc(Cl)cc23)C1c1ccc(C(F)(F)F)cc1 (centres unmarked) [Compound 31]
22 | 0.2 to 1 | Fc1ccccc1C1NCCc2c1[nH]c1ccc(Cl)cc21 (centres unmarked) [Compound 205]
23 | 0.008 to 0.04 | CCCOC(=O)N1CCc2c([nH]c3ccc(Cl)cc23)C1c1ccc([N+](=O)[O-])cc1 (centres unmarked) [Compound 66]
24 | > 1 | COc1ccc(OC(=O)N2CCc3c([nH]c4ccc(Br)cc34)[C@@H]2c2ccc(Cl)cc2)cc1 [#332]
25 | > 1 | COc1ccc(C2c3[nH]c4ccc(F)cc4c3CCN2C(=S)NC2CCCCC2)cc1 (centres unmarked) [Compound 242]
26 | 0.04 to 0.2 | CCOC(=O)N1CCc2c([nH]c3ccc(Cl)cc23)C1c1ccc(Cl)cc1Cl (centres unmarked) [Compound 141]
27 | < 0.008 | CCOC(=O)N1CCc2c([nH]c3ccc(Br)cc23)C1c1ccc(Cl)cc1 (centres unmarked) [Compound 4]
28 | < 0.008 | CCOC(=O)N1CCc2c([nH]c3ccc(Cl)cc23)C1c1ccc(OC)cc1 (centres unmarked) [Compound 2]
29 | 0.008 to 0.04 | ON1CCc2c([nH]c3ccc(Br)cc23)C1c1ccc(Cl)cc1 (centres unmarked) [Compound 81]
30 | 0.04 to 0.2 | Cc1ccc(C2NCCc3c2[nH]c2ccc(Br)cc32)cc1 (centres unmarked) [Compound 156]

Continued, compound first:

Row | Structure (SMILES) | EC50 [µM]
31 | COC(=O)N1CCc2c([nH]c3ccc(OCc4ccccc4)cc23)C1c1ccccc1 (centres unmarked) [Compound 293] | > 1
32 | COc1ccc(C2c3[nH]c4ccc(Cl)cc4c3CCN2C(=O)Oc2ccc(C)cc2)cc1 (centres unmarked) [Compound 17] | < 0.008
33 | COc1ccc(C2c3[nH]c4ccc(Cl)cc4c3CCN2C(=O)N(C)c2ccccc2)cc1 (centres unmarked) [Compound 340] | > 1
34 | COc1ccc(C2c3[nH]c4ccc(Cl)cc4c3CCN2C(=O)NCCCl)cc1 (centres unmarked) [Compound 217] | 0.2 to 1
35 | COc1ccc(C2c3[nH]c4ccc(Cl)cc4c3CCN2C(=O)Nc2cccc(OC)c2)cc1 (centres unmarked) [Compound 164] | 0.04 to 0.2
36 | COc1ccc(C2c3[nH]c4ccccc4c3CCN2C(=S)Nc2cccc(F)c2)cc1 (centres unmarked) [Compound 308] | > 1
37 | COc1ccc(C2c3[nH]c4ccccc4c3CCN2C(=S)Nc2ccc(C)cc2)cc1 (centres unmarked) [Compound 317] | > 1
38 | CS(=O)(=O)N1CCc2c([nH]c3ccc(Cl)cc23)C1c1ccc(OCc2ccccc2)cc1 (centres unmarked) [Compound 225] | 0.2 to 1
39 | O=C(OCCCl)N1CCc2c([nH]c3ccc(Cl)cc23)C1c1cccc(Br)c1 (centres unmarked) [Compound 99] | 0.008 to 0.04
40 | CCOC(=O)N1CCc2c([nH]c3ccc(Cl)cc23)C1CC (centres unmarked) [Compound 240] | > 1
41 | O=C(OCCCl)N1CCc2c([nH]c3ccc(Cl)cc23)C1c1cccc(C(F)(F)F)c1 (centres unmarked) [Compound 15] | < 0.008
42 | CCOC(=O)N1CCc2c([nH]c3ccc(Br)cc23)C1c1ccccc1 (centres unmarked) [Compound 27] | < 0.008
43 | CCOC(=O)N1CCc2c([nH]c3ccccc23)C1c1ccc(OC)cc1 (centres unmarked) [Compound 235] | > 1
44 | COc1cccc(C2c3[nH]c4ccc(Cl)cc4c3CCN2C(=O)OCCCl)c1 (centres unmarked) [Compound 117] | 0.008 to 0.04
45 | CC(=O)N1CCc2c([nH]c3ccc(Br)cc23)C1c1ccccc1 (centres unmarked) [Compound 152] | 0.04 to 0.2

Same assay, conditions: Homo sapiens, HeLa cells, hypoxic conditions (1% O2)

Row | EC50 [µM] | Structure (SMILES)
46 | 0.04 to 0.2 | CCOC(=O)N1CCc2c([nH]c3ccc(Cl)cc23)C1c1ccc(C(=O)N2CCN(C3CCCCC3)CC2)cc1 (centres unmarked) [Compound 481]
47 | 0.008 to 0.04 | CCOC(=O)N1CCc2c([nH]c3ccc(Cl)cc23)C1c1ccc(C(=O)NCC2COC(C)(C)O2)cc1 (centres unmarked) [Compound 461]
48 | 0.008 to 0.04 | COc1ccc(OC(=O)N2CCc3c([nH]c4ccc(Cl)cc34)C2c2ccc(OCC(O)CO)cc2)cc1 (centres unmarked) [Compound 635]
49 | 0.008 to 0.04 | CCOC(=O)N1CCc2c([nH]c3ccc(Cl)cc23)C1CC(C)C (centres unmarked) [Compound 472]
50 | 0.04 to 0.2 | COCCOCCOc1ccc(C2c3[nH]c4ccc(Cl)cc4c3CCN2C(=O)Oc2ccc(OC)cc2)cc1 (centres unmarked) [Compound 678]
51 | 0.04 to 0.2 | CCOC(=O)N1CCc2c([nH]c3ccc(Cl)cc23)C1CC(C)(C)C (centres unmarked) [Compound 486]
52 | < 0.008 | CC/C=C/CCC1c2[nH]c3ccc(Cl)cc3c2CCN1C(=O)OCC (centres unmarked) [Compound 439]
53 | 0.2 to 1 | CCOC(=O)N1CCc2c([nH]c3ccc(Br)cc23)C1c1ccc(CN2CCCN(C)CC2)cc1 (centres unmarked) [Compound 541]
54 | < 0.008 | O=C(Oc1ccc(F)cc1)N1CCc2c([nH]c3ccc(Cl)cc23)C1c1ccc(OCCCCCCn2cncn2)cc1 (centres unmarked) [Compound 781]
55 | < 0.008 | O=C(Oc1ccc(F)cc1)N1CCc2c([nH]c3ccc(Cl)cc23)C1c1ccc(OCCCCl)cc1 (centres unmarked) [Compound 712]
56 | < 0.008 | C=CCOc1ccc(C2c3[nH]c4ccc(Cl)cc4c3CCN2C(=O)Oc2ccc(OC)cc2)cc1 (centres unmarked) [Compound 432]
57 | 0.04 to 0.2 | CCOC(=O)N1CCc2c([nH]c3ccc(Cl)cc23)C1c1ccsc1 (centres unmarked) [Compound 513]
58 | < 0.008 | COc1ccc(OC(=O)N2CCc3c([nH]c4ccc(Br)cc34)C2c2cnc(N(C)C)nc2)cc1 (centres unmarked) [Compound 431]
59 | 0.2 to 1 | CCOC(=O)N1CCc2c([nH]c3ccc(Cl)cc23)C1c1ccc(C(=O)N(C)CCCN(C)C)cc1 (centres unmarked) [Compound 558]
60 | 0.2 to 1 | CCOC(=O)N1CCc2c([nH]c3ccc(Cl)cc23)C1c1ccc(C(=O)NCCCN2CCOCC2)cc1 (centres unmarked) [Compound 534]
61 | 0.008 to 0.04 | O=C(Oc1ccccc1Cl)N1CCc2c([nH]c3ccc(Cl)cc23)C1c1ccc(OCCCCl)cc1 (centres unmarked) [Compound 713]

Row | Structure (SMILES) | EC50 [µM]
62 | CC(C)NCCCCCCOc1ccc(C2c3[nH]c4ccc(Cl)cc4c3CCN2C(=O)Oc2ccc(F)cc2)cc1 (centres unmarked) [Compound 774] | 0.008 to 0.04
63 | O=C(Oc1ccc(F)cc1)N1CCc2c([nH]c3ccc(Cl)cc23)C1c1ccc(OCCCCCCN2CCCC2)cc1 (centres unmarked) [Compound 773] | < 0.008
64 | O=C(CN1CCOCC1)Nc1ccc(C2c3[nH]c4ccc(Cl)cc4c3CCN2C(=O)Oc2ccc(Cl)cc2)cc1 (centres unmarked) [Compound 454] | 0.008 to 0.04
65 | Cc1ccc(OC(=O)N2CCc3c([nH]c4ccc(Cl)cc34)C2c2ccc(OCCCN(C)C)cc2)cc1 (centres unmarked) [Compound 502] | 0.04 to 0.2

Same assay, conditions: Homo sapiens, HeLa cells, hypoxic conditions (1% O2, 5% CO2)

Row | EC50 [µM] | Structure (SMILES)
66 | < 0.008 | O=C(Oc1ccc(F)cc1)N1CCc2c([nH]c3ccc(Cl)cc23)C1c1ccc(OCCCn2ccnn2)cc1 (centres unmarked) [Compound 995]
67 | < 0.008 | COc1ccc(OC(=O)N2CCc3c([nH]c4ccc(Cl)cc34)C2c2ccc(OCCCn3cncn3)cc2)cc1 (centres unmarked) [Compound 888]
68 | < 0.008 | Cc1ccc(OC(=O)N2CCc3c([nH]c4ccc(Cl)cc34)C2c2ccc(OCCCn3ccnc3)cc2)cc1 (centres unmarked) [Compound 900]
69 | 0.008 to 0.04 | CS(=O)(=O)NCC(O)COc1ccc(C2c3[nH]c4ccc(Cl)cc4c3CCN2C(=O)Oc2ccc(Cl)cc2)cc1 (centres unmarked) [Compound 849]
70 | 0.04 to 0.2 | O=C(Oc1ccc(F)cc1)N1CCc2c([nH]c3ccc(Cl)cc23)C1c1ccc(OCCn2ccnc2)cc1 (centres unmarked) [Compound 835]
71 | < 0.008 | Cc1ccc(OC(=O)N2CCc3c([nH]c4ccc(Cl)cc34)C2c2ccc(OCCCCl)cc2)cc1 (centres unmarked) [Compound 915]
72 | 0.2 to 1 | O=C(Oc1ccc(Cl)cc1)N1CCc2c([nH]c3ccc(Cl)cc23)C1c1ccc(N2CCCC2)cc1 (centres unmarked) [Compound 984]

Row | Structure (SMILES) | EC50 [µM]
73 | COCCN(C)CC(O)COc1ccc(C2c3[nH]c4ccc(Cl)cc4c3CCN2C(=O)Oc2ccc(Cl)cc2)cc1 (centres unmarked) [Compound 964] | 0.008 to 0.04
74 | CCN(CC)CC(O)COc1ccc(C2c3[nH]c4ccc(Cl)cc4c3CCN2C(=O)Oc2ccc(Cl)cc2)cc1 (centres unmarked) [Compound 938] | < 0.008
75 | CN1CCCC(COc2ccc(C3c4[nH]c5ccc(Cl)cc5c4CCN3C(=O)Oc3ccccc3Cl)cc2)C1 (centres unmarked) [Compound 976] | 0.04 to 0.2
76 | COCCN(CCOC)CC(O)COc1ccc(C2c3[nH]c4ccc(Cl)cc4c3CCN2C(=O)Oc2ccc(F)cc2)cc1 (centres unmarked) [Compound 913] | < 0.008
77 | COCCN(C)CC(O)COc1ccc(C2c3[nH]c4ccc(Cl)cc4c3CCN2C(=O)Oc2ccc(F)cc2)cc1 (centres unmarked) [Compound 936] | < 0.008
